Converted amounts (≈) assume the structure as drawn. The source made the active and inactive calls. No cut-off for these calls is given here.
Experiments:
[1] = test system: EC9706; assay: Antiproliferative activity against human EC9706 cells after 48 hrs by CCK-8 assay; assay type: functional, cell-based; settings: for IC50: EC9706, 48 h
[2] = test system: EC9706; assay: Antiproliferative activity against human EC9706 cells at >= 600 ug/mL after 48 hrs by CCK-8 assay relative to control; assay type: functional
[3] = test system: EC9706; assay: Antiproliferative activity against human EC9706 cells at 150 ug/mL after 48 hrs by CCK-8 assay; assay type: functional, cell-based

Structure (SMILES) | Activity [1] | IC50 [1] | Activity [2] | Activity [3]
Nc1cccc2c1CN(C1CCC(=O)NC1=O)C2=O (stereo unspecified) [LENALIDOMIDE] | Dose-dependent effect | 340 µg/mL (≈ 1310 µM) | 100% | Active
Cc1ccc(S(=O)(=O)Nc2cccc3c2CN(C2CCC(=O)NC2=O)C3=O)cc1 (stereo unspecified) | Dose-dependent effect | 225 µg/mL (≈ 545 µM) | 100% | Active
Cc1ccc(C(=O)Nc2cccc3c2CN(C2CCC(=O)NC2=O)C3=O)cc1 (stereo unspecified) | Dose-dependent effect | 262 µg/mL (≈ 694 µM) | 100% | Active
Cc1ccc(CNc2cccc3c2CN(C2CCC(=O)NC2=O)C3=O)cc1 (stereo unspecified) | Dose-dependent effect | 310 µg/mL (≈ 852 µM) | 100% | Active
